Tests used:
human vagus nerve = test: Vagal depolarization - inhibition of human vagus nerve by P2X3 inhibitors (grease-gap recording); details: TRPV4 agonist GSK 1016790A 300 nM; FIG. 1
Description: The aim of the study is to test the effects of P2X3 antagonists on the deoplarisation of human vagus nerve as an ex vivo measure of blocking Chronic Cough. Human vagal tissue was dissected from 4 human lungs (obtained from healthy tissue donors).
The tissue was assayed using an O2/CO2 gassed, grease-gap recording system as described in Birrell et al, Am J Respir Crit Care Med. 2009, 180:1042-1047; Bonvini et al, J Allergy Clin Immunol. 2016, 138 (1), 249-261, Bonvini et al, Naunyn Schmiedebergs Arch Pharmacol. 2015, 388: 401-420. Briefly, after the tissue had stabilised it was exposed to two 2 minute challenges with a sub-maximal concentration of agonists (TRPV4 agonist GSK 1016790A, 300 nM). Sub-maximal concentration means a concentration where no full efficacy is observed, i.e. stimulation with the agonist within the dynamic range. Typical values are 80% of the maximal efficacy that can be achieved. The tissue was then exposed to vehicle (0.1 Vol % DMSO solution in Krebs buffer) or test compound for 10 minutes and then the tissue was re-challenged with agonist in the presence of the test compound. […] Only one experiment was performed on each piece of tissue and n=4 means tissue from 4 different lungs[…]. The data was electrophysiologically recorded as actual depolarisation levels and presented as mean percentage inhibition. Results can be found in FIG. 1.

[1] = tested on: human P2X3 and human P2X2/3 receptors; details: cited from earlier work
treated subjects = details: Clinical Phase II trials (Abdulqawi et al 2015; Strand et al 2015); cited from earlier work
healthy young males [2] = test: Adverse events (side effect profile) in multiple dose study; assay type: in vivo, humans
Description: (§1) In a first part of a two-part, double-blind, placebo-controlled, randomized, parallel-group study safety and tolerability of ascending repeated oral doses of the drug to be tested are assessed in 47 healthy male volunteers, followed by a second two-way crossover administration of four different doses in 40 patients with refractory chronic cough to assess safety, tolerability and efficacy for proof of concept.
(§2) In the first part of the above-described protocol, 3-(5-Methyl-1,3-thiazol-2-yl)-5-[(3R)-tetrahydrofuran-3-yloxy]-N-{(1R)-1-[2-(trifluoromethyl)pyrimidin-5-yl]ethyl}-benzamide has been administered as multiple oral dose with increasing amounts starting from 10 mg per subject twice daily to 750 mg per subject twice daily in comparison with placebo to healthy young males. […] The treatment duration was 14 days.
as §1, with “study, the” for “study”, “36” for “47”, “second part with a” for “second”, “in” for “in 40”
(§3) The treatment duration was 14 days.

healthy young males [3] = test: Taste related adverse events recorded during clinical studies; assay type: in vivo, humans
Description: Taste related adverse events describe adverse events that lead to a change in taste perception, e.g. dysgeusia (distortion of taste), hypogeusia (decrease in taste sensitivity) and ageusia (complete lack of taste).
Adverse events (AE) in the context of a clinical study are defined as any untoward medical occurrence (i.e. any unfavorable and unintended sign including abnormal laboratory findings, symptom or disease) in a patient or clinical investigation subject after providing written informed consent for participation in the study. Therefore, an AE may or may not be temporally or causally associated with the use of a medicinal (investigational) product.
3-(5-Methyl-1,3-thiazol-2-yl)-5-[(3R)-tetrahydrofuran-3-yloxy]-N-{(1R)-1-[2-(trifluoromethyl)pyrimidin-5-yl]ethyl}benzamide has been administered as single oral dose with increasing amounts starting from 10 mg per subject to 800 mg per subject in comparison with placebo to healthy young males.
as §2, §3

healthy young males [4] = test: Taste assessment test (Taste Strips) during clinical studies; assay type: in vivo, humans
Description: The Taste Strips (Burghart Messtechnik GmbH) are a validated test method for ascertaining tasting performance (ISO certified). The following concentrations have been applied on the taste strips: sweet: 0.4, 0.2, 0.1, 0.05 g/ml sucrose; sour: 0.3, 0.165, 0.09, 0.05 g/ml citric acid; salty: 0.25, 0.1, 0.04, 0.016 g/ml sodium chloride; bitter: 0.006, 0.0024, 0.0009, 0.0004 g/ml quinine hydrochloride. The Strips were used to check the tasting performance of the whole mouth by placing a Taste Strip on the tongue and closing the mouth (the subject can move the tongue). […] Afterwards and between the 4 taste strips the mouth was rinsed with a sip of tap water according to individual needs. […] The taste strips were presented in a pseudo-randomized order (increasing concentration for each quality) and placed on the tongue. The subject's task was to choose one of five possible answers on a form (sweet, sour, salty, bitter, no taste). Before and after each testing, the mouth was rinsed with a sip of tap water according to individual needs. The lowest concentrations of each taste quality should have been identified by half of the healthy subjects only; the highest concentration should have been identified by approximately 100% of the subjects.
The taste strips were tested under blinded conditions to the subject. The number of correctly identified taste strips per subjects was counted with the maximum number achievable being 18 points (4 concentration/taste quality plus to blank paper strips).

[5] = multiple oral dose 10 mg to 750 mg twice daily, 14 days

SMILES | effect size / efficacy in blocking vagus nerve depolarization, compared between compounds (human vagus nerve) | selectivity P2X3 homomer versus P2X2/3 [1] | taste disturbances in treated subjects (treated subjects) | nausea (healthy young males [2]; multiple dose study, 50 mg dose) | adverse events physical dependency, increased heart rate, xerostomia, constipation, drowsiness and sedation (healthy young males [2]; [5]) | taste AE duration (healthy young males [3]; 1 subject treated with 200 mg twice daily, on day 11) | influence on perception of taste based on spontaneously reported adverse events (healthy young males [3]; [5]) | course of change in taste perception (healthy young males [3]; one subject treated with 200 mg twice daily) | taste AE duration (healthy young males [3]; one subject treated with 750 mg twice daily, on day 3) | taste related adverse events (healthy young males [3]; single oral dose, 10 mg to 800 mg per subject, versus placebo) | effects on taste perception based on the taste assessment test (healthy young males [4]; [5]) | changes in taste scores under treatment (healthy young males [4]; single oral dose 10 mg to 800 mg) | effects on taste perception based on the taste assessment test (healthy young males [4]; single oral dose 10 mg to 800 mg, tests at baseline, 3 hrs and 6 days after drug administration)
COc1cc(C(C)C)c(Oc2cnc(N)nc2N)cc1S(N)(=O)=O [AF-219, 5-(2,4-diamino-pyrimidin-5-yloxy)-4-isopropyl-2-methoxy-benzenesulfonamide] | the effect size observed was the same | P2X3 and P2X2/3 non-selective | leads to taste disturbances in treated subjects |  |  |  |  |  |  |  |  |  | 
Cc1cnc(-c2cc(O[C@@H]3CCOC3)cc(C(=O)N[C@H](C)c3cnc(C(F)(F)F)nc3)c2)s1 [3-(5-methyl-1,3-thiazol-2-yl)-5-[(3R)-tetrahydrofuran-3-yloxy]-N-{(1R)-1-[2-(trifluoromethyl)pyrimidin-5-yl]ethyl}benzamide] |  |  |  | one case of nausea | no such adverse events | 2 h | in few subjects only | repeatedly occurring during continued treatment starting on treatment day 4 and lasting until 5 days after end of treatment | 0.5 h | No taste related adverse were observed | no relevant effects on taste perception (No relevant effects on taste perception in the context of the present invention mean that no effect on taste perception has been observed in at least 80% of subjects under treatment according to the above-described protocol over a period of 14 days) | no significant or relevant changes in taste scores were observed | no relevant effects on taste perception were observed

Reference: patent US20210220358A1, “1,3-THIAZOL-2-YL SUBSTITUTED BENZAMIDES FOR THE TREATMENT OF DISEASES ASSOCIATED WITH NERVE FIBER SENSITIZATION” (Bayer Aktiengesellschaft, priority 2018, published 2021)
